Results as given in US12473344B2, “Chimeric antigen receptor polypeptides and methods of using same” (The Board of Trustees of the Leland Stanford Junior …, priority 2018, dated 2025).

Tests used:
HCV NS3 protease = conditions: for CAR expression after removal of the protease inhibitor by washing / CAR expression after incubation with protease inhibitor: B7H3 CAR-SMASh
Protocol: (§1) Flow cytometry of samples was performed on an LSR Fortessa (BD Bioscience) and data were analyzed using FlowJo software. B7H3 CARs were detected using B7H3 Fc. GD2 and CD19 CARs were detected by 1A7 and FMC63 anti-idiotype antibody, respectively. CD 22 CARs were detected using biotinylated protein L and APC conjugated streptavidin. FACS plots were gated on live single T cells. Untransduced T cells (“Mock”) were used as controls.
(§2) CAR T cells were incubated in the indicated concentration of drug in T cell culture media (above) until analysis by FACS. Media was changed every 48-72 hours. Removal of drug was achieved by washing CAR T cells in T cell culture media 3 times.

[1] = system: markers of T cell exhaustion; experiment: Flow cytometry of activation/exhaustion-associated markers on CAR-SMASh T cells; format: cell-based, human
Source text: Asunaprevir (ASV), danoprevir (DPV), simeprevir (SPV), and grazoprevir (GPV) were purchased from ApexBio. Cell surface markers were stained with mouse monoclonal antibodies targeting PD-1 (PE-Cy7, eBioscience), LAG3 (PE, eBioscience), Tim-3 (BV 510, BioLegend), and B7-H3 (PE, R&D Systems). CAR molecules were stained with recombinant B7-H3 Fc (R&D Systems), protein L (Pierce Protein Biology), 1A7 anti-idiotype antibody, or FMC63 anti-idiotype antibody 136.20.1 conjugated in house using DyLight 650 Antibody Labeling Kit (Thermo Fisher). T cells were cultured in AIM V (Thermo Fisher) supplemented with 5% fetal bovine serum (Gibco), 100 U/mL rhIL-2 (PeproTech), 2 mM L-glutamine, 10 mM HEPES, 100 U/mL penicillin, and […] streptomycin (Invitrogen). Cancer cell lines were cultured in RPMI (Thermo Fisher) supplemented with 10% fetal bovine serum, 2 mM L-glutamine, 10 mM HEPES, 100 U/mL penicillin, and […] streptomycin.
as §1, §2

T cells = experiment: T cell aggregation during in vitro culture (microscope images); format: cell-based; conditions: CAR-SMASh T cells incubated with inhibitor
[2] = system: B7H3-expressing Nalm6 GFP tumor cells; experiment: Co-culture killing assay (tumor GFP fluorescence); format: cell-based; conditions: for cytotoxicity of B7H3 CAR-SMASh T cells incubated with drug prior to co-culture: 3 μM, various amounts of time (from 24 h)
Protocol: Cancer cell fluorescence was monitored by time-lapse microscopy. Total integrated fluorescence intensity was calculated and plotted as a function of time. […] Cytokine in culture supernatant was quantified using the Human IL-2 ELISA MAX™ and Human IFN-γ ELISA MAX™ Deluxe kits (BioLegend).

[3] = system: B7H3-expressing Nalm6 GFP; experiment: Cytokine in co-culture supernatant (IFN-γ ELISA); format: cell-based
Protocol: (§3) CAR T cells were co-cultured with indicated cancer cell lines, engineered to constitutively express green fluorescent protein, on day 10 post activation in 96-well plates at a ratio of 1:1 (50,000 cells each). Cancer cell fluorescence was monitored by time-lapse microscopy. Total integrated fluorescence intensity was calculated and plotted as a function of time. Co-culture supernatant was harvested after 24 hours of co-culture and analyzed for the presence of cytokine. Cytokine in culture supernatant was quantified using the Human IL-2 ELISA MAX™ and Human IFN-γ ELISA MAX™ Deluxe kits (BioLegend).

[4] = system: B7H3 (low)-expressing Nalm6 GFP tumor cells; experiment: Co-culture killing assay, low antigen (tumor GFP fluorescence); format: cell-based; conditions: 3 μM, various amounts of time, B7H3 (low) targets
Protocol: as §3

[5] = system: CAR expression on T cells in vivo; experiment: In vivo CAR expression by nanoluciferase imaging; conditions: MED8A mice, 50 mg/kg grazoprevir+25 mg/kg ritonavir two to three times per day by oral gavage
Protocol: In a further study, real-time expression of a C-terminal nanoluciferase (nLuc) domain-containing CAR was monitored in vivo by nanoluciferase-based imaging.
Next, in vivo CAR expression in the mice described in FIG. 27 was assessed by nanoluciferase imaging. Mice were injected with 200 μL of Nano-Glo substrate that was diluted 40× in PBS. After a 6-minute incubation period, the mice were imaged on an IVIS Spectrum imager.

[6] = system: Nalm6 leukemia cells expressing B7H3 and firefly luciferase; experiment: In vivo Nalm6 leukemia model, bioluminescence imaging; parameters: species or system NSG mice; conditions: 50 mg/kg grazoprevir+25 mg/kg ritonavir three times per day by oral gavage
Protocol: NSG mice were infused with 10^6 Nalm6 leukemia cells expressing B7H3 and firefly luciferase. Four days later, mice were infused with 8×10^6 B7H3-BBz-SMASh CART cells or mock untransduced control cells. Mice that received B7H3-BBz-SMASh CAR T cells were either administered drug (50 mg/kg grazoprevir+25 mg/kg ritonavir) or vehicle (50% polyethylene glycol 300) three times per day by oral gavage. Bioluminescence imaging was used to follow the expansion of the firefly luciferase-expressing Nalm6 cells.
Assessed in this example was whether B7H3 CAR-nanoluciferase-SMASh CAR-T cell activity could be controlled in vivo against Nalm6 leukemia cells. NSG mice were infused with 10^6 Nalm6 leukemia cells expressing B7H3 antigen and firefly luciferase by tail vein injection. Four days later, mice were infused with 8×10^6 B7H3 CAR-nanoluciferase-SMASh CAR-T cells or mock un-transduced control T cells by tail vein injection. Mice in the “CAR OFF” group were administered 50 mg/kg grazoprevir+25 mg/kg ritonavir (a pharmacokinetic enhancer of grazoprevir) two to three times per day by oral gavage. Bioluminescence imaging was used to follow the expansion of the firefly luciferase-expressing Nalm6 cells.

[7] = system: GFP-labeled tumor cells expressing cognate antigen; experiment: Co-culture killing assay of several CAR-SMASh T cells in presence of drug; format: cell-based; conditions: 3 μM asunaprevir
Protocol: as §3

[8] = loss of CAR expression and exhaustion markers (FIG. 6, FIG. 9)

Compound: C=C[C@@H]1C[C@]1(NC(=O)[C@@H]1C[C@@H](Oc2ncc(OC)c3ccc(Cl)cc23)CN1C(=O)[C@@H](NC(=O)OC(C)(C)C)C(C)(C)C)C(=O)NS(=O)(=O)C1CC1 [asunaprevir, Asunaprevir]
- CD19 CAR-SMASh expression after incubation with protease inhibitor (HCV NS3 protease; 3 μM, various amounts of time): decrease in CD19 CAR-SMASh expression
- CD22 CAR-SMASh expression after incubation with protease inhibitor (HCV NS3 protease; 3 μM, various amounts of time): decrease in CD22 CAR-SMASh expression
- GD2 CAR-SMASh expression after incubation with protease inhibitor (HCV NS3 protease; 3 μM, various amounts of time): decrease in GD2 CAR-SMASh expression
- CAR expression after removal of the protease inhibitor by washing (HCV NS3 protease): recovery of CAR expression
- CAR expression after incubation with protease inhibitor (HCV NS3 protease; 3 μM, various amounts of time): decrease in CAR expression
- time to full CAR re-expression after removal of drug (HCV NS3 protease; B7H3 SMASh-CAR T cells): ≤ 72 h
- time at which reduction in CAR expression was maximal (HCV NS3 protease; B7H3 SMASh-CAR T cells, 3 μM): 96 h
- time within which reduction in CAR expression occurred (HCV NS3 protease; B7H3 SMASh-CAR T cells, 3 μM): ≤ 24 h
- reduction of CAR expression (HCV NS3 protease; B7H3 SMASh-CAR T cells, ex vivo, 3 μM (FIG. 4)): greater than 90%
- CAR re-expression after removal of drug (HCV NS3 protease; B7H3 SMASh-CAR T cells, within 24 h of removal): approximately 1.5 log
- expression of activation/exhaustion markers ([1]; CAR-SMASh T cells, 3 μM): reduces expression of activation/exhaustion markers
- relationship between inhibitor and expression of CAR molecules and activation/exhaustion-associated markers ([1]; FIG. 9): dose-dependent relationship
- concentration at which maximal effect was observed [1, 8]: 1 µM
- concentration at which near maximal effect was observed [1, 8]: 0.3 µM
- T cell aggregation during in vitro culture (T cells): resistant to aggregation
- cytotoxicity of B7H3 CAR-SMASh T cells incubated with drug prior to co-culture [2]: reduced cytotoxicity
- cytotoxicity of B7H3 CAR-SMASh T cells incubated with drug prior to co-culture ([2]; listed as asumaprevir): significant reduction in killing
- cytotoxicity of B7H3 CAR-SMASh T cells after drug removal prior to co-culture ([2]; drug removed for various amounts of time): potent killing of tumor targets indistinguishable from constitutively expressed, non-regulated CAR T cells
- time to restoration of interferon production after removal [3]: ≤ 24 h
- interferon production in response to antigen expressing targets ([3]; drug-induced inhibition of CAR expression): very low levels
- cytotoxicity of B7H3 CAR-SMASh T cells incubated with drug prior to co-culture [4]: reduced cytotoxicity

Compound: C=C[C@@H]1C[C@]1(NC(=O)[C@@H]1C[C@@H]2CN1C(=O)[C@H](C(C)(C)C)NC(=O)O[C@@H]1C[C@H]1CCCCCc1nc3ccc(OC)cc3nc1O2)C(=O)NS(=O)(=O)C1CC1.O [grazoprevir]
- in vivo CAR expression (nanoluciferase imaging) [5]: diminished
- cytotoxic capacity of B7H3-BBz-SMASh CAR T cells in vivo [6]: dramatically reduces the cytotoxic capacity

Compound: COc1ccc2c(O[C@@H]3C[C@H]4C(=O)N[C@]5(C(=O)NS(=O)(=O)C6CC6)C[C@H]5/C=C\CCCCN(C)C(=O)[C@@H]4C3)cc(-c3nc(C(C)C)cs3)nc2c1C [simeprevir]
- CAR expression after removal of the protease inhibitor by washing (HCV NS3 protease): recovery of CAR expression
- CAR expression after incubation with protease inhibitor (HCV NS3 protease; 3 μM, various amounts of time): decrease in CAR expression

Compound: GD2 CAR-SMASh: GD2 scFv (14G2A) CAR with 4-1BB, CD3 zeta and C-terminal SMASh tag (SEQ ID NO: 11)
- cytotoxicity against target cells in the presence of drug (off state) [7]: significant cytotoxicity
